Source: patent US10918687B2, “Kava derived therapeutic compounds and methods of use thereof” (KUALITY HERBCEUTICS LLC, priority 2013, dated 2021)

What was measured:
[1] = system: NNK-induced DNA damage in liver tissues; assay: NNK-induced DNA damage in A/J mouse liver tissues; assay type: in vivo, A/J mice; conditions: diet Day 1-Day 7, 24 h after NNK; data not shown
Protocol: DNA was isolated and purified from ˜100 mg lung and liver tissues of each mouse, following Genomic-tip 100/G protocol from Qiagen Corp (Valencia, Calif.).
(§1) After one-week acclimation, A/J mice were weighed and randomized into ten groups (3 mice per group except for Group 1 that had one mouse as the negative control) and switched to the AIN-93 G diet on a date defined as Day 1. Mice in Groups 1 and 2 were given the AIN-93 G diet during Day 1-Day 7. Mice in Groups 3-10 were given the AIN-93 G diets supplemented with kava, (+)-DHK, (+)-DHM, and synthetic (±)-DHM respectively at the specified dose during Day 1-Day 7. Mice in Groups 2-10 were given a single dose of NNK at 100 mg/kg bodyweight in saline (0.1 ml) via i.p. injection at the beginning of Day 7 while the mouse in Group 1 was given saline (0.1 ml). Mice were euthanized by CO2 overdosing 24 h after NNK treatment, and lung and liver tissues were collected and stored at −80° C. until DNA isolation. A set of NNK-induced DNA adducts (O^6-mG, 7-mG, 7-pobG, O^6-pobdG, O^2-pobdT, 7-phbG, O^6-phbdG and O^2-phbdT) were quantified by following reported procedures (Leitzman, P et al. (2014) Cancer. Prev. Res., 7: 86-96; Peterson, L A et al. (2013) Chem. Res. Toxicol. 26: 1464-1473; Upadhyaya, P et al. (2008) Chem. Res. Toxicol. 21: 1468-1476). For 7-mG isolation, DNA (30 μg) was dissolved in 10 mM sodium phosphate buffer, pH 7 (500 μL) and spiked with [^13C1^2H3]7-mG (10 pmol). Samples were heated to 80° C. for 30 minutes. An aliquot (100 μL) was removed for 7-mG analysis.

[2] = system: NNK-induced lung tumorigenesis; assay: NNK-induced lung adenoma formation in A/J mice; assay type: in vivo; conditions: Example 4, Day 119
Protocol: Female A/J mice, 5-6 weeks of age from the Jackson Laboratory (Bar Harbor, Me.), were handled according to animal welfare protocols approved by IACUC at the University of Minnesota. […] After one-week acclimation, mice were weighed, randomized into different groups and switched to AIN-93G-powdered diet, defined as Day 1. The number of mice in each group was specified in the Result Section. On Day 7 and Day 14, mice in the negative control groups received 0.1 mL physiological saline solution while mice in the other groups received NNK (100 and 67 mg/kg respectively in 0.1 mL of physiological saline solution) via i.p. injection. At the end of Day 21, mice were switched to AIN-93M-powdered diet until the end of the study. Diet consumption was measured twice weekly and bodyweight was monitored weekly. All mice were euthanized with an overdose of carbon dioxide. The lungs were collected and tumors on the surface of the lung were counted.
Data on lung adenoma multiplicity were reported as mean±SD (n=5-40). […] For Experiment 2, unpaired t-test was used for comparison between NNK control and kava treatment groups. Two-sided p-value≤0.05 was considered statistically significant. Data on DNA adducts were reported as mean±SD (n=3). For the time-course study, unpaired […] was used for comparisons between NNK control and kava treatment groups. Two-sided p-value≤0.05 was considered statistically significant: *p<0.05, **p<0.01, and ***p<0.001. For the 24-h time point study, one-way ANOVA was used to compare means.
After one-week acclimation, mice were weighed, randomized into eight groups and switched to the AIN-93 G diet on a date defined as Day 1. The number of mice in each group is specified in the Results Section (FIG. 36). Mice were fed diets supplemented with different compounds at the dose specified in the Results Section during Day 1-Day 14. On Day 7 and Day 14, mice in the negative control group received 0.1 mL of saline solution while mice in the other groups received NNK (100 and 67 mg/kg, respectively, in 0.1 mL of saline solution) via i.p. injection. At the end of Day 21, mice were switched to the AIN-93 M diet until the end of the study. The diet was replenished twice weekly. The diet consumption was measured twice weekly and the bodyweight was monitored weekly. This study was terminated at the end of Day 119. All mice were euthanized with CO2 overdosing.

[3] = system: NNK-induced DNA adducts in lung tissues; assay: NNK-induced DNA adducts in A/J mouse lung tissues (LC-ESI-MS/MS); assay type: in vivo, A/J mice; conditions: 24 h after NNK
From the text: DNA was isolated from the whole lung tissue of each individual mouse following Puregene DNA isolation protocol (Qiagen Corp, Valencia, Calif.) (Urban et al., Chem Res Toxicol 2012; 25:2167-78). 7-pobG, O^2-pobdT, O^6-pobdG, and O^6-mG were quantified by LC-ESI-MS/MS, following established protocols (Urban et al., Chem Res Toxicol 2012; 25:2167-78; Peterson et al., Cancer Res 1991; 51:5557-64).
After one-week acclimation, A/J mice were weighed and randomized into seven groups (3 mice per group) and switched to the AIN-93 G diet on a date defined as Day 1. Mice in Groups 1 and 2 were given the AIN-93 G diet during Day 1-Day 7. Mice in Groups 3-7 were given the AIN-93 G diet supplemented with desmethoxyyangonin, (+)-DHK, (+)-kavain, (+)-DHM, or (+)-methysticin respectively, at a dose of 1 mg/g of diet during Day 1-Day 7. Mice in Groups 2-7 were given a single dose of NNK at 100 mg/kg bodyweight in saline (0.1 ml) via intraperitoneal (i.p.) injection at the beginning of Day 7 while mice in Group 1 were given saline (0.1 ml). Mice were euthanized by CO2 overdosing 24 h after NNK treatment, and lung tissues were collected and stored at −80° C. until DNA isolation. A number of NNK-induced DNA modifications (O^6-mG, 7-pobG, O^6-pobdG and O^2-pobdT) were quantified by following a reported procedure (Leitzman, P et al. (2014) Cancer. Prev. Res., 7: 86-96).
as §1

[4] = system: APAP-induced hepatotoxicity; assay: Short-term combination study: potentiation of APAP-induced hepatotoxicity in C57BL/6 mice
From the text: Six week-old female C57BL/6J mice (Jackson Laboratories, ME) were housed at specific pathogen-free animal facilities of Research Animal Resources, University of Minnesota with free access to standard rodent food and water. All mice were acclimatized for one week before being used for experiments. Mice were gavaged with dose formulations at the indicated doses and times, euthanized by CO2 overdosing with necropsy performed by experienced researchers.
The short-term combination studies were designed to evaluate the potential synergism of kava and its chemicals to APAP induced hepatotoxicity. C57BL/6 mice were randomized (8-15 mice per group) and were administered with PEG-400 (200 μL), kava (500 mg/kg bodyweight), DHM or FKA and FKB in PEG-400 (200 μL) at the indicated doses daily via oral gavage for two days. On the third day, mice in the respective groups were co-administered with APAP (800 mg/kg bodyweight) in PEG-400 (200 μL). Bodyweight was recorded daily. Necropsies were performed 24 hours after the last gavage by experienced researchers. Serum from each mouse was analyzed for ALT and AST. Livers were collected and preserved in 10% neutral buffered formalin. Appropriately fixed tissues were processed into paraffin blocks using standard histological techniques, and 5 μm sections were cut and stained with hematoxylin and eosin (H&E).
The clinical chemistry data were reported as mean±SD (n=4-15). […] One-way analysis of variance (ANOVA) was used to compare the means among different groups in the short-term combination studies. Dunnett's test was used for comparisons of APAP and other treatment groups when the one-way ANOVA analysis was statistically significant. p-value≤0.05 was considered statistically significant. All analyses were conducted in GraphPad Prism 4 (GraphPad Software, Inc. La Jolla, Calif.).

With `COC1=CC(=O)O[C@@H](CCc2ccc3c(c2)OCO3)C1` (racemic) [(±)-DHM, (±)-dihydromethysticin] the “effect on NNK-induced DNA damage in the liver tissues” value [1] was “none of the treatments had significant effects” and the “lung adenoma formation (incidence and multiplicity)” value (shortened to “lung adenoma formation”) ([2]; 0.5 mg/g of diet Day 1-Day 14) was “adenoma free”.
`COC1=CC(=O)O[C@@H](CCc2ccccc2)C1` [(+)-DHK, (+)-dihydrokavain] was tested, and the “effect on O^6-mG and POB adducts” value ([3]; 1 mg/g of diet) was “did not reduce any of these adducts”, the “effect on NNK-induced DNA damage in the liver tissues” value [1] was “none of the treatments had significant effects” and the “lung adenoma formation” value ([2]; 0.05 mg/g of diet Day 1-Day 14) was “no reduction at all”. For the same compound, the “lung adenoma formation” value ([2]; 0.5 mg/g of diet Day 1-Day 14) was “no reduction at all”.
With `COC1=CC(=O)O[C@@H](/C=C/c2ccc3c(c2)OCO3)C1` [(+)-methysticin] the “effect on NNK-induced O^6-mG” value ([3]; isolated kavalactones 1 mg/g of diet Day 1-Day 7) was “significantly reduced”.
With `CC(=O)Nc1ccc(O)cc1` [APAP, acetaminophen, reference compound] the “serum ALT and AST activities” value ([4]; APAP alone 800 mg/kg bodyweight via gavage) was “significantly increased” and the liver lesions ([4]; APAP alone 800 mg/kg, lesions graded 0 to 4) was “evenly distributed among different severity categories”.
